Earlier results as cited in patent US20040170686A1, “Suspension vehicle for coated drug particles” (priority 2003, published 2004).

Tested on: gram-positive organisms
Conditions: gram-positive organisms incl. Staphylococcus, Streptococcus, Enterococcus, Bacillus, Corynebacterium

CC(=O)NC[C@H]1CN(c2ccc(N3CCOCC3)c(F)c2)C(=O)O1 [Linezolid, linezolid]
antibacterial activity: strong antibacterial activity
